# According to patent publication US8952024B2, “Herbicidal pyrimidone derivatives” (E I du Pont de Nemours and Company, priority 2009, dated 2015):
# Columns and labels:
# Experiment in all cases: Test A pre-/postemergence plant response
# Type in all cases: in vivo
# [1] = system: barnyardgrass (Echinochloa crus-galli)
# Description: (§1) Seeds of barnyardgrass (Echinochloa crus-galli), large crabgrass (Digitaria sanguinalis), giant foxtail (Setaria faberii), morningglory (Ipomoea spp.), pigweed (Amaranthus retroflexus), velvetleaf (Abutilon theophrasti), wheat (Triticum aestivum) and corn (Zea mays) were planted into a blend of loam soil and sand and treated preemergence with a directed soil spray using test chemicals formulated in a non-phytotoxic solvent mixture which included a surfactant. At the same time these species were also treated with postemergence applications of test compounds formulated in the same manner.
# (§2) Plants ranged in height from two to ten cm and were in the one- to two-leaf stage for the postemergence treatment. Treated plants and untreated controls were maintained in a greenhouse for approximately ten days, after which time all treated plants were compared to untreated controls and visually evaluated for injury. Plant response ratings, summarized in Table A, are based on a 0 to 100 scale where 0 is no effect and 100 is complete control. A dash (-) response means no test result.
# [2] = system: corn (Zea mays)
# Description: as §1, §2
# [3] = system: giant foxtail (Setaria faberii)
# Description: as §1, §2
# [4] = system: large crabgrass (Digitaria sanguinalis)
# Description: as §1, §2
# [5] = system: morningglory (Ipomoea spp.)
# Description: as §1, §2
# [6] = system: pigweed (Amaranthus retroflexus)
# Description: as §1, §2
# [7] = system: velvetleaf (Abutilon theophrasti); settings: for Velvetleaf plant response rating: visual injury, 0 to 100 scale (0 no effect, 100 complete control)
# Description: as §1, §2
# [8] = system: wheat (Triticum aestivum); settings: for Wheat plant response rating: visual injury, 0 to 100 scale (0 no effect, 100 complete control)
# Description: as §1, §2
# [9] = Postemergence, 125 g ai/ha, 0 to 100 scale where 0 is no effect and 100 is complete control
# [10] = Postemergence, 500 g ai/ha, 0 to 100 scale, 0 = no effect, 100 = complete control, approx. ten days
# [11] = Preemergence, 125 g ai/ha, 0 to 100 scale, 0 = no effect, 100 = complete control
# [12] = Preemergence, 500 g ai/ha, visual injury, 0 to 100 scale (0 no effect, 100 complete control), approx. ten days
# [13] = Preemergence, 500 g ai/ha, 0 to 100 scale, 0 = no effect, 100 = complete control
# [14] = Postemergence, 500 g ai/ha, visual injury, 0 to 100 scale (0 no effect, 100 complete control), approx. ten days
# [15] = Postemergence, 500 g ai/ha, approx. ten days
Compound,"Plant response rating, Barnyardgrass [1, 9]","Plant response rating, Barnyardgrass [1, 11]","Plant response rating, Corn [2, 9]","Plant response rating, Corn [2, 11]","Plant response rating, Foxtail, Giant [3, 9]","Plant response rating, Foxtail, Giant [3, 11]","Plant response rating, Crabgrass, Large [4, 9]","Plant response rating, Crabgrass, Large [4, 11]","Plant response rating, Morningglory [5, 9]","Plant response rating, Morningglory [5, 11]","Plant response rating, Pigweed [6, 9]","Plant response rating, Pigweed [6, 11]","Plant response rating, Velvetleaf [7, 9]","Plant response rating, Velvetleaf [7, 11]","Plant response rating, Velvetleaf [7, 13]","Plant response rating, Wheat [8, 9]","Plant response rating, Wheat [8, 11]","Plant response rating, Wheat [8, 13]","Barnyardgrass plant response rating [1, 14]","Plant response rating, Barnyardgrass [1, 13]",further results
CCCn1c(-c2ccc3c(c2)OCCO3)ncc(C(=O)C2=C(O)CCCC2=O)c1=O [Compound 149],70,20,0,0,60,10,40,30,100,0,70,80,100,40,70,20,0,20,,,"Plant response rating, Barnyardgrass [1, 10]: 90; Plant response rating, Barnyardgrass [1, 12]: 50; Plant response rating, Corn [2, 10]: 30; Plant response rating, Corn [2, 12]: 20; Plant response rating, Foxtail, Giant [3, 10]: 80; Plant response rating, Foxtail, Giant [3, 12]: 60; Plant response rating, Crabgrass, Large [4, 10]: 70; Plant response rating, Crabgrass, Large [4, 12]: 80; Plant response rating, Morningglory [5, 10]: 100; Plant response rating, Morningglory [5, 12]: 40; Plant response rating, Pigweed [6, 10]: 100; Plant response rating, Pigweed [6, 12]: 100; Plant response rating, Velvetleaf [7, 10]: 100; Plant response rating, Wheat [8, 10]: 50"
CCCn1c(-c2ccc3ccccc3c2)ncc(C(=O)C2=C(O)CCCC2=O)c1=O [Compound 150],40,0,0,0,40,0,20,0,100,0,30,0,50,0,0,0,0,0,,,"Plant response rating, Barnyardgrass [1, 10]: 80; Plant response rating, Barnyardgrass [1, 12]: 0; Plant response rating, Corn [2, 10]: 0; Plant response rating, Corn [2, 12]: 0; Plant response rating, Foxtail, Giant [3, 10]: 70; Plant response rating, Foxtail, Giant [3, 12]: 0; Plant response rating, Crabgrass, Large [4, 10]: 50; Plant response rating, Crabgrass, Large [4, 12]: 10; Plant response rating, Morningglory [5, 10]: 100; Plant response rating, Morningglory [5, 12]: 0; Plant response rating, Pigweed [6, 10]: 60; Plant response rating, Pigweed [6, 12]: 0; Plant response rating, Velvetleaf [7, 10]: 90; Plant response rating, Wheat [8, 10]: 20"
O=C1CCCC(O)=C1C(=O)c1cnc(-c2ccccc2)n(C2CCCCCCCCCCC2)c1=O [Compound 165],0,0,0,0,20,0,20,0,50,,80,0,100,0,0,0,0,0,80,0,"Corn plant response rating [2, 14]: 30; Plant response rating, Corn [2, 13]: 0; Foxtail, Giant plant response rating [3, 14]: 30; Plant response rating, Foxtail, Giant [3, 13]: 0; Crabgrass, Large plant response rating [4, 14]: 50; Plant response rating, Crabgrass, Large [4, 13]: 0; Morningglory plant response rating [5, 14]: 100; Plant response rating, Morningglory [5, 13]: 0; Pigweed plant response rating [6, 14]: 100; Plant response rating, Pigweed [6, 13]: 0; Velvetleaf plant response rating [7, 15]: 100; Wheat plant response rating [8, 15]: 0"
Cc1ccc(-n2c(-c3cccc(F)c3)ncc(C(=O)C3=C(O)CCCC3=O)c2=O)cc1 [Compound 202],90,20,10,20,80,50,70,50,100,0,100,90,100,70,100,20,0,40,100,100,"Corn plant response rating [2, 14]: 30; Plant response rating, Corn [2, 13]: 40; Foxtail, Giant plant response rating [3, 14]: 100; Plant response rating, Foxtail, Giant [3, 13]: 100; Crabgrass, Large plant response rating [4, 14]: 100; Plant response rating, Crabgrass, Large [4, 13]: 100; Morningglory plant response rating [5, 14]: 100; Plant response rating, Morningglory [5, 13]: 100; Pigweed plant response rating [6, 14]: 100; Plant response rating, Pigweed [6, 13]: 100; Velvetleaf plant response rating [7, 15]: 100; Wheat plant response rating [8, 15]: 50"
O=C1CCCC(O)=C1C(=O)c1cnc(-c2cc(F)c(F)c(F)c2)n(C2CCCCC2)c1=O [Compound 205],90,0,0,0,40,10,60,20,100,0,90,10,100,10,80,0,0,0,100,10,"Corn plant response rating [2, 14]: 20; Plant response rating, Corn [2, 13]: 0; Foxtail, Giant plant response rating [3, 14]: 90; Plant response rating, Foxtail, Giant [3, 13]: 80; Crabgrass, Large plant response rating [4, 14]: 90; Plant response rating, Crabgrass, Large [4, 13]: 90; Morningglory plant response rating [5, 14]: 100; Plant response rating, Morningglory [5, 13]: 60; Pigweed plant response rating [6, 14]: 100; Plant response rating, Pigweed [6, 13]: 90; Velvetleaf plant response rating [7, 15]: 100; Wheat plant response rating [8, 15]: 10"
